These results are taken from patent US20240208998A1, “COMPOUNDS FOR USE IN THE TREATMENT OF HYPERPROLIFERATIVE DISORDERS” (FUNDACIÓ PRIVADA INSTITUT D'INVESTIGACIÓ ONCOLÓGICA DE VALL …, priority 2021, published 2024).

In one data set the target is human TET2 construct (Homo sapiens, UniProt Q6N021, A1837G/A1840G/D1704G/D1842G/DEL1471-1702/DEL1708-1833/E1841G/F1706G/N1843S/Q1834G/V1836G). In words: Determination of TET2 binding by Surface Plasmon Resonance. The settings on record: SPR, Biacore T200, 25° C., steady state fit to single site interaction model. The procedure:
The human methylcytosine dioxygenase TET2 construct used (1129-2002 with residues 1471-1843 replaced by a 15-residue GS-linker) was expressed in a pET-28a(+)psumo vector with kanamycin resistance and an N-terminal His6 tag, and cloned in Rosetta D3 Escherichia coli competent cells. Transformed cells were cultured overnight in 10 mL of LB media supplied with kanamycin (50 μg/mL), then scaled to 1 L LB medium supplied with kanamycin (50 μg/mL) and grown at 37° C. Once the optical density (OD600) achieved 0.8, protein expression was induced with 0.4 mM isopropyl-β-thiogalactopyranoside (IPTG) overnight at 18° C. Cells were harvested by centrifugation (8,000 rpm, 4° C., 30 min) and the pellet obtained was resuspended in 15 mL of buffer A (50 mM Hepes, 150 mM NaCl, 30 mM imidazole, 2 mM β-mercaptoethanol (pH 8.0) supplemented with Pierce protease inhibitor cocktail (ThermoFisher Scientific)) and lysed by sonication (1 min 40 s: 10 cycles×10 s ON, 30 s OFF, A=35%, T=19° C.) followed by two consecutive centrifugations (8,000 rpm, 4° C., 30 min) to clarify the lysate.
The TET2 protein was purified using an AKTA Start system (GE Healthcare, Uppsala, Sweden) by two-step purification procedure: one His-affinity chromatography followed by a size exclusion chromatography. First, the protein fraction obtained during the lysis (supernatant) was applied to a 5 mL HisTrap HP column (GE Healthcare), washed with buffer A (50 mM Hepes, 150 mM NaCl, 30 mM imidazole, 2 mM […] (pH 8.0)) and the bound protein was eluted with buffer B (50 mM Hepes, 150 mM NaCl, 250 mM imidazole, 2 mM β-mercaptoethanol (pH 8.0)). The eluted protein-containing fractions were pooled and concentrated up to 4 mL for the last purification step: a size exclusion chromatography (HiPrep 16/60 Sephacryl S-100 HR) in 50 mM Hepes, 150 mM NaCl, 2 mM β-mercaptoethanol (pH 8.0). Finally, the mass and purity of the protein were verified by SDS-electrophoresis and mass spectrometry.
The binding of compounds of the examples was determined by Surface Plasmon Resonance (SPR) using a Biacore T200 SPR biosensor instrument (GE Healthcare, Uppsala, Sweden) at 25° C. The human TET2 construct was immobilized on a CM5 sensor chip using a standard covalent immobilization via amine coupling following the activation of the carboxymethyl dextran matrix of the sensor chip (injection of a solution containing 0.1 M N-hydroxysuccinimide and 0.4 M 1-ethyl-3-[3-(dimethylamino)propyl]carbodiimide hydrochloride at a flow rate of 15 μL/min for 7 min). The protein immobilization was achieved after the injection of 5 μg/mL TET2 in 10 mM sodium acetate (pH 4.0) at a flow rate of 5 μL/min. Unreacted activated groups of the dextran matrix were deactivated by injection of 1 M ethanolamine hydrochloride for 7 min at a flow rate of 15 μL/min. The corresponding matrix activation and protein immobilization were performed using as a running buffer a phosphate buffered saline solution (1.05× PBS: 10 mM phosphate, pH 7.4, 150 mM NaCl). The screened compounds were prepared in a 20 mM stock solution in DMSO and diluted with 1.05× PBS to achieve a final 5% (v/v) DMSO concentration. The running buffer of the interaction assays consisted of 1×PBS, 5% (v/v) DMSO. The flow rate used for the screening was 60 μL/min and the ligand association and dissociation times set were 60 s and 120 s, respectively.
For data analysis the software used was the Biacore T200 Evaluation software. Different corrections were applied. First, the nonspecific binding to the chip surface and the baseline drift were corrected subtracting the signals of a reference surface (where the immobilization procedure was carried out without proteins) to the signals obtained on the TET2 surface. Second, a series of solvent standards (solvent correction) were introduced to remove the differences derived from the DMSO. Finally, the background was corrected subtracting blank injections (blank subtraction) to the injected compound signals.
Background: SPR reads the build-up and loss of mass on a sensor chip optically.

For another data set, the system named is HL60 cell line. As to the kind of experiment: Antiproliferative activity on HL60 cell line (CellTiter-Glo). It counts as cell-based. The settings on record: Homo sapiens, HL-60; HL60, 72 h of treatment. The procedure:
The human leukaemic cell line HL60 was grown in suspension in RPMI 1640 medium containing 10% (v/v) FBS and 1% (v/v) P/S (Life Technologies). […] Leukaemia cells were suspended at a density of 2×10^5 cells/mL in complete RPMI 1640 medium and 25 μL were seeded in each well (5×10^3 final total cells/well). A 10 μM solution of the compounds of examples 1, 12 and 21, and a 25 μM solution of all other compounds were prepared in complete medium, and then serially diluted (1:2) (as specified in Table 3 below). A solution of complete medium with DMSO was used as a vehicle control.
Twenty-five microliters of each serially diluted compound solution were added to the corresponding wells of the plate (50 μL of final volume/well). After 48 h of treatment, 50 μL of fresh 2X serially diluted compound solution was added to their corresponding wells (100 μL of final volume/well). After twenty-four additional hours, an equal volume (100 μL) of CellTiter-Glo Reagent (Promega) was added to each well, plates were shaken during 2 min and incubated at rt for 10 min. Luminescence was recorded using a Spark multimode microplate reader and an integration time of 1 s per well.

In the next data set the test system is A375 (melanoma). In words: Antiproliferative activity on other tumour cell lines (CellTiter-Glo): A375. Type of data set: cell-based. Conditions: Homo sapiens, A-375; A375, 72 h of treatment. The procedure: (§1) Other human adherent cancer cell lines were cultured in their corresponding cell medium (as specified in Table 4) supplemented with 10% FBS (v/v) and 1% P/S (v/v). Twenty-four hours prior to treatment with the compounds to be tested (Examples 1, 12 and 21), the cells were seeded in 96-well plates at different densities depending of the cell line (as specified in Table 4).
(§2) Depending on the cell line, a 50, 125 or 250 μM solution of the compounds of examples 1, 12 and 21 were prepared in complete medium, and then serially diluted (1:2) (Table 5). A solution of complete medium with DMSO was used as a vehicle control.
(§3) Fifty microliters of each serially diluted compound solution was added by medium replacement in two wells (by duplicate). After 48 h of treatment, 50 μL of fresh 2X serially diluted compound solution was added to the corresponding wells of the plate (100 μL of final volume/well). After twenty-four additional hours (a total of 72 h of treatment), an equal volume (100 μL) of CellTiter-Glo Reagent (Promega) was added to each well, plates were shaken during 2 min and incubated at rt for 10 min. Luminescence was recorded using a Spark multimode microplate reader and an integration time of 1 s per well.
On the technique in general: Cellular ATP, detected with luciferase, serves as a proxy for viable cell number.

The test system of a further data set is LN229 (glioblastoma). In words: Antiproliferative activity on other tumour cell lines (CellTiter-Glo): LN229. It counts as cell-based. Conditions: Homo sapiens, LN-229; LN229, 72 h of treatment. The procedure: as §1, §2, §3
Another data set relates to T98G (glioblastoma). In words: Antiproliferative activity on other tumour cell lines (CellTiter-Glo): T98G. It counts as cell-based. The settings on record: Homo sapiens, 72 h of treatment. The procedure: as §1, §2, §3
Another data set relates to Hop62 (lung). As to the kind of experiment: Antiproliferative activity on other tumour cell lines (CellTiter-Glo): Hop62. Type of data set: cell-based. Conditions: Homo sapiens, HOP-62; Hop62, 72 h of treatment. The procedure:
as §1, §2, §3

Another data set relates to MCF7 (breast). In words: Antiproliferative activity on other tumour cell lines (CellTiter-Glo): MCF7. Type of data set: cell-based. Conditions: Homo sapiens; MCF7, 72 h of treatment. The procedure: as §1, §2, §3
In a further data set the test system is MDA-MB-468 (breast). In words: Antiproliferative activity on other tumour cell lines (CellTiter-Glo): MDA-MB-468. Type of data set: cell-based. Conditions: Homo sapiens, MD-MB-468, 72 h of treatment. The procedure:
as §1, §2, §3

For another data set, the system named is HCT116 (colon). As to the kind of experiment: Antiproliferative activity on other tumour cell lines (CellTiter-Glo): HCT116. It counts as cell-based. Conditions: Homo sapiens; HCT 116, 72 h of treatment. The procedure:
as §1, §2, §3

Each structure is given as a SMILES string.

Regarding `Cc1[nH]c2ccccc2c1-c1csc(NC(=O)Cc2cn3ccsc3n2)n1` [Example 1, 2-(imidazo[2,1-b]thiazol-6-yl)-N-[4-(2-methyl-1H-indol-3-yl)thiazol-2-yl]acetamide], the melting point (commonly the temperature, or range, at which the solid turns liquid) is 210 to 212 °C. In addition, the dissociation constant Kd (in general, a measure of binding affinity in units of concentration) at human TET2 construct worked out at 16 µM. In the data set with HL60 cell line, the response was half-maximal at 0.113 µM (EC50). The response with A375 (melanoma) was half-maximal at 1.4 µM (EC50). In addition, in the data set on LN229 (glioblastoma), the EC50 (usually the concentration that produces a half-maximal response) amounted to 3.3 µM. The half-maximal effective concentration (EC50) in the data set on T98G (glioblastoma) was determined as 73.7 µM. Besides, it took 40.1 µM to reach a half-maximal effect with Hop62 (lung) (EC50). Moreover, the EC50 with MCF7 (breast) came out at 14.6 µM. Also, the half-maximal effective concentration (EC50) in the data set on MDA-MB-468 (breast) worked out at 16 µM. Moreover, the EC50 in the data set with HCT116 (colon) is 12.1 µM.

`Cc1[nH]c2ccccc2c1-c1csc(N(C)C(=O)C(C)c2cn3ccsc3n2)n1` (stereo not shown) [Example 15, 2-(imidazo[2,1-b]thiazol-6-yl)-N-methyl-N-[4-(2-methyl-1H-indol-3-yl)thiazol-2-yl]propanamide] showed a melting point of 85 to 88 °C. Further, on human TET2 construct, binding was characterised by a dissociation constant (Kd) of 11 µM. Moreover, the EC50 with HL60 cell line was found to be 20.2 µM.

With `Cc1[nH]c2ccccc2c1-c1csc(NC(=O)Cc2cn(C)c3ccccc23)n1` [Example 11, 2-(1-methyl-1H-indol-3-yl)-N-[4-(2-methyl-1H-indol-3-yl)thiazol-2-yl]acetamide], the melting point was 139 to 142 °C. This compound gave a Kd at human TET2 construct of 2 µM. In the data set on HL60 cell line, this compound gave an EC50 of 2.2 µM.

In turn, `Cc1[nH]c2ccccc2c1-c1csc(NC(=O)Cc2cc3ccccc3[nH]2)n1` [Example 7, 2-(1H-indol-2-yl)-N-[4-(2-methyl-1H-indol-3-yl)thiazol-2-yl]acetamide] came in with a melting point of 166 to 168 °C. This compound also yielded a dissociation constant Kd on human TET2 construct of 5 µM. Further, in the data set with HL60 cell line, the midpoint of the response, the EC50, lay at 9.3 µM.
